From article PMC12491383, “Organ and tumour dosimetry of ^177Lu-rhPSMA-10.1, a novel PSMA-targeted therapy: results from a Phase I trial” (European Journal of Nuclear Medicine and Molecular Imaging, 2025)
Several values for one entry are separate records, joined by “and”; a condition that tells them apart may be missing. Equal values may be shown once.

Experiments:
[1] = Venous whole-blood radioactivity measurement (gamma counter): blood clearance and red marrow absorbed dose; type: in vivo, human
Method: To assess the biodistribution and kinetics of radioactivity in individual tissues, whole blood and imaging-based radiation dosimetry were performed. Venous blood samples for radioactivity measurement were collected within the 30 min prior to ^177Lu-rhPSMA-10.1 administration, and at approximately 30 min, 1.5-, 4-, 24- and 48-hours post-administration in all treatment cycles. Samples were collected from the contralateral arm to that of the ^177Lu-rhPSMA-10.1 injection. Whole-blood concentrations were measured using a calibrated gamma counter to estimate both red marrow absorbed doses and blood clearance over time. All measurements were decay-corrected to the time of sample collection.
(§1) All continuous data are expressed as the mean (standard deviation [SD]) unless otherwise stated. All blood- and image-based pharmacokinetic analyses were conducted in Python and Excel. Effective half-lives for organs and tumours were calculated using a mono-exponential fit to the washout phase of the time–activity data.

[2] = Image-based effective and biological half-lives (mono-exponential fit to washout phase); type: in vivo, human; details: all cycles; for Biological Half-life, Tumours / Effective Half-life, Tumours: anatomy-based method
Method: (§2) Multi-bed single-photon emission computed tomography (SPECT)/CT was conducted at 3-, 24-, 48- and 168-hours post-^177Lu-rhPSMA-10.1 administration in each treatment cycle for the estimation of organ and tumour absorbed doses in each patient. Prior to commencement of the study, each investigating site was required to complete a calibration of their dose calibrator and SPECT/CT system to ensure harmonised quantification of the imaging data. Quantitative reconstructions and all dosimetry analyses were carried out centrally by an independent dosimetry vendor (Radiopharmaceutical Imaging and Dosimetry LLC, Baltimore, MD).
as §1
Based on exponential fits to image-derived time–activity washout data in individual tissues (Fig. 5), the biological and effective half-lives of ^177Lu-rhPSMA-10.1 in tumours and normal organs were estimated using the mean data from all patients across all cycles (Supplemental Table S3).
^aTumour half-life values were derived from the anatomy-based method and averaged across all tumours and cycles (n = 137).

[3] = Tumour dosimetry by SPECT/CT, activity-based and anatomy-based tumour selection and delineation; type: in vivo, human; details: for Tumour absorbed dose lower than Cycle 1 value, on average: anatomy-based
Method: as §2
The specific absorbed doses (Gy/GBq) in normal organs and tumours were determined using the Medical Internal Radiation Dose (MIRD) Committee S-value methodology. Individual patient organ masses, determined via CT delineation, were scaled to reflect deviations from reference phantom geometry. Cumulative organ absorbed doses (Gy) were calculated across all treatment cycles. Further details on dosimetry methodology are provided in the supplemental materials and have been reported in accordance with EANM guidance.
Approach one was an activity-based method equivalent to that used in most studies that have evaluated tumour dosimetry with ^177Lu-labelled PSMA RLT [28]. For this method, up to three tumours were selected according to their relative visual uptake on the 168-hour SPECT/CT. Lesion contouring for volume/mass was performed based on a 41% SUVmax threshold on the corresponding PSMA PET/CT. These contours were manually transferred onto the SPECT images, making minor adjustments where necessary to the contour margins accounting for any activity spill out on the SPECT. This is illustrated in Supplemental Figure S1. The second method was anatomy-based, with up to five tumours selected in a blinded fashion on CT according to RECIST v1.1 criteria. Lesion volume and mass were determined via manual contouring on the CT and then directly transferred to the SPECT images. Where a common lesion was selected across both methods, the difference in tumour volume resulting from the two contouring methods was calculated.
For the Cycle 1 tumour dosimetry, 36 lesions (27 bone and 9 lymph nodes) were analysed using the activity-based method, while 51 lesions (39 bone and 12 lymph nodes) were evaluated using the anatomy-based method. […] For each method, the mean tumour dose was determined by averaging the maximum tumour dose across all patients.

[4] = set-up: method as in PMID 37770108; details: within the same patient; compassionate use program in Germany; cited from earlier work

SMILES: CC(C)(C)[Si](F)(c1ccc(C(=O)NC[C@@H](NC(=O)CN2CCN(CC(=O)[O-])CCN(CC(=O)[O-])CCN(CC(=O)[O-])CC2)C(=O)N[C@H](CCCCNC(=O)CCC(=O)NCCC[C@@H](NC(=O)CC[C@H](NC(=O)N[C@@H](CCC(=O)O)C(=O)O)C(=O)O)C(=O)O)C(=O)O)cc1)C(C)(C)C.[177Lu+3] [^177Lu-rhPSMA-10.1]
- Mean (SD) Absorbed Dose, bone marrow (blood-based) ([1]; All Cycles): 0.032 Gy/GBq and 0.032 (0.010) Gy/GBq
- Mean (SD) Absorbed Dose, bone marrow (blood-based) ([1]; Cycle 1, 13 patients): 0.031 (0.010) Gy/GBq
- Effective half-life in blood ([1]; venous whole blood, based on mean patient levels, mean (SD)): 2.2 h
- Biological Half-life, Kidneys ([2]; Mean of 13 patients): 44.9 hours
- Biological Half-life, Salivary Glands ([2]; Mean of 13 patients): 64.6 hours
- Effective Half-life, Kidneys ([2]; Mean of 13 patients): 33.7 h
- Effective Half-life, Salivary Glands ([2]; Mean of 13 patients): 45.4 h
- Biological Half-life, Tumours ([2]; Mean of 13 patients): 338 hours and 337.8 hours
- Effective Half-life, Tumours ([2]; Mean of 13 patients): 91.4 h and 91 h
- Biological Half-life, Kidneys ([2]; Patient 1): 123.6 hours
- Biological Half-life, Salivary Glands ([2]; Patient 1): 120.2 hours
- Effective Half-life, Kidneys ([2]; Patient 1): 69.6 h
- Effective Half-life, Salivary Glands ([2]; Patient 1): 68.6 h
- Biological Half-life, Tumours ([2]; Patient 1): 1692.5 hours
- Effective Half-life, Tumours ([2]; Patient 1): 145.8 h
- Biological Half-life, Kidneys ([2]; Patient 2): 52.3 hours
- Biological Half-life, Salivary Glands ([2]; Patient 2): 54.2 hours
- Effective Half-life, Kidneys ([2]; Patient 2): 39.4 h
- Effective Half-life, Salivary Glands ([2]; Patient 2): 40.5 h
- Biological Half-life, Tumours ([2]; Patient 2): 68.8 hours
- Effective Half-life, Tumours ([2]; Patient 2): 48.1 h
- Biological Half-life, Kidneys ([2]; Patient 3): 47.5 hours
- Biological Half-life, Salivary Glands ([2]; Patient 3): 67.5 hours
- Effective Half-life, Kidneys ([2]; Patient 3): 36.6 h
- Effective Half-life, Salivary Glands ([2]; Patient 3): 47.4 h
- Biological Half-life, Tumours ([2]; Patient 3): 305.1 hours
- Effective Half-life, Tumours ([2]; Patient 3): 104.8 h
- Biological Half-life, Kidneys ([2]; Patient 4): 35.9 hours
- Biological Half-life, Salivary Glands ([2]; Patient 4): 84.7 hours
- Effective Half-life, Kidneys ([2]; Patient 4): 29.3 h
- Effective Half-life, Salivary Glands ([2]; Patient 4): 55.3 h
- Biological Half-life, Tumours ([2]; Patient 4): 124.9 hours
- Effective Half-life, Tumours ([2]; Patient 4): 70.1 h
- Biological Half-life, Kidneys ([2]; Patient 5): 34.6 hours
- Biological Half-life, Salivary Glands ([2]; Patient 5): 54.0 hours
- Effective Half-life, Kidneys ([2]; Patient 5): 28.5 h
- Effective Half-life, Salivary Glands ([2]; Patient 5): 40.3 h
- Biological Half-life, Tumours ([2]; Patient 5): 168.9 hours
- Effective Half-life, Tumours ([2]; Patient 5): 82.1 h
- Biological Half-life, Kidneys ([2]; Patient 6): 38.7 hours
- Biological Half-life, Salivary Glands ([2]; Patient 6): 61.3 hours
- Effective Half-life, Kidneys ([2]; Patient 6): 31.2 h
- Effective Half-life, Salivary Glands ([2]; Patient 6): 44.3 h
- Biological Half-life, Tumours ([2]; Patient 6): 282.5 hours
- Effective Half-life, Tumours ([2]; Patient 6): 102.0 h
- Biological Half-life, Kidneys ([2]; Patient 7): 33.9 hours
- Biological Half-life, Salivary Glands ([2]; Patient 7): 57.1 hours
- Effective Half-life, Kidneys ([2]; Patient 7): 27.9 h
- Effective Half-life, Salivary Glands ([2]; Patient 7): 42.1 h
- Biological Half-life, Tumours ([2]; Patient 7): 316.6 hours
- Effective Half-life, Tumours ([2]; Patient 7): 106.1 h
- Biological Half-life, Kidneys ([2]; Patient 8): 34.9 hours
- Biological Half-life, Salivary Glands ([2]; Patient 8): 61.5 hours
- Effective Half-life, Kidneys ([2]; Patient 8): 28.6 h
- Effective Half-life, Salivary Glands ([2]; Patient 8): 44.4 h
- Biological Half-life, Tumours ([2]; Patient 8): 611.3 hours
- Effective Half-life, Tumours ([2]; Patient 8): 126.6 h
- Biological Half-life, Kidneys ([2]; Patient 9): 32.3 hours
- Biological Half-life, Salivary Glands ([2]; Patient 9): 47.7 hours
- Effective Half-life, Kidneys ([2]; Patient 9): 26.8 h
- Effective Half-life, Salivary Glands ([2]; Patient 9): 36.7 h
- Biological Half-life, Tumours ([2]; Patient 9): 204.8 hours
- Effective Half-life, Tumours ([2]; Patient 9): 89.7 h
- Biological Half-life, Kidneys ([2]; Patient 10): 28.7 hours
- Biological Half-life, Salivary Glands ([2]; Patient 10): 59.0 hours
- Effective Half-life, Kidneys ([2]; Patient 10): 24.3 h
- Effective Half-life, Salivary Glands ([2]; Patient 10): 43.1 h
- Biological Half-life, Tumours ([2]; Patient 10): 170.2 hours
- Effective Half-life, Tumours ([2]; Patient 10): 82.4 h
- Biological Half-life, Kidneys ([2]; Patient 11): 35.3 hours
- Biological Half-life, Salivary Glands ([2]; Patient 11): 61.7 hours
- Effective Half-life, Kidneys ([2]; Patient 11): 28.9 h
- Effective Half-life, Salivary Glands ([2]; Patient 11): 44.5 h
- Biological Half-life, Tumours ([2]; Patient 11): 148.2 hours
- Effective Half-life, Tumours ([2]; Patient 11): 76.8 h
- Biological Half-life, Kidneys ([2]; Patient 12): 54.5 hours
- Biological Half-life, Salivary Glands ([2]; Patient 12): 53.6 hours
- Effective Half-life, Kidneys ([2]; Patient 12): 40.6 h
- Effective Half-life, Salivary Glands ([2]; Patient 12): 40.1 h
- Biological Half-life, Tumours ([2]; Patient 12): 152.4 hours
- Effective Half-life, Tumours ([2]; Patient 12): 78.0 h
- Biological Half-life, Kidneys ([2]; Patient 13): 31.6 hours
- Biological Half-life, Salivary Glands ([2]; Patient 13): 57.8 hours
- Effective Half-life, Kidneys ([2]; Patient 13): 26.4 h
- Effective Half-life, Salivary Glands ([2]; Patient 13): 42.4 h
- Biological Half-life, Tumours ([2]; Patient 13): 145.7 hours
- Effective Half-life, Tumours ([2]; Patient 13): 76.2 h
- Tumour absorbed dose lower than Cycle 1 value, on average ([3]; Cycle 2, 11 patients with multiple cycles): ~ 37% and 37%
- Tumour absorbed dose lower than Cycle 1 value, on average ([3]; Cycle 3): ~ 56% and 56%
- Maximum tumour absorbed dose, range across patients ([3]; activity method, Cycle 1): 2.00–25.7 Gy/GBq
- Mean (SD) maximum tumour absorbed dose ([3]; activity method, Cycle 1): 8.87 Gy/GBq and 8.87 (6.71) Gy/GBq
- Mean therapeutic index, ratio of tumour-to-kidney absorbed doses ([3]; activity method, Cycle 1): 32.1
- Mean tumour-to-salivary gland absorbed dose ratio ([3]; activity method, Cycle 1): 73.2
- Maximum tumour absorbed dose, range across patients ([3]; anatomy method, Cycle 1): 0.37–6.67 Gy/GBq
- Mean (SD) maximum tumour absorbed dose ([3]; anatomy method, Cycle 1): 2.38 (1.78) Gy/GBq and 2.38 Gy/GBq
- Radiation dose to the tumour relative to ^177Lu-PSMA-I&T, fold greater [4]: up to 8 fold
